Laboratory results from patent publication US9802899B2, “Heterocyclic compounds as pesticides” (BAYER CROPSCIENCE AG, priority 2012, dated 2017).

assay: Determination of the log P values by HPLC (formic acid method); format: physicochemical; settings: reversed-phase HPLC column (C 18), reversed-phase column (C 18), acidic range (pH 3.4), 55° C.
Description: 1) Description of Method for Determination of the Log P Values (Formic Acid Method)
Eluents for determination in the acidic range (pH 3.4):
Eluent A: acetonitrile+1 ml of formic acid/liter. Eluent B: water+0.9 ml of formic acid/liter.
The lambda max values were determined in the maxima of the chromatographic signals using the UV spectra from 200 nm to 400 nm.

Compound | chromatographic logP
Nc1ccn(-c2cccc(Cl)c2Cl)n1 [1-(2,3-Dichlorophenyl)-1H-pyrazole-3-amine] | 1.97
Nc1ccn(-c2cccc(F)c2F)n1 [1-(2,3-Difluorophenyl)-1H-pyrazole-3-amine] | 1.56
Cc1nc(F)c(-n2ccc(N)n2)cc1F [1-(2,5-Difluoro-6-methylpyridin-3-yl)-1H-pyrazole-3-amine] | 1.5
Nc1ccn(-c2cc(F)ccc2F)n1 [1-(2,5-Difluorophenyl)-1H-pyrazole-3-amine] | 1.58
Nc1ccn(-c2cc(F)cnc2F)n1 [1-(2,5-difluoropyridin-3-yl)-1H-pyrazole-3-amine] | 1.15
Nc1ccn(-c2c(Cl)cccc2Cl)n1 [1-(2,6-Dichlorophenyl)-1H-pyrazole-3-amine] | 1.47
Cc1cccc(C)c1-n1ccc(N)n1 [1-(2,6-Dimethylphenyl)-1H-pyrazole-3-amine] | 0.62
Cc1ccc(-n2ccc(N)n2)c(Cl)c1 [1-(2-Chloro-4-methylphenyl)-1H-pyrazole-3-amine] | 1.85
CCOc1cccc(Cl)c1-n1ccc(N)n1 [1-(2-Chloro-6-ethoxyphenyl)-1H-pyrazole-3-amine] | 2.13
Nc1nn(-c2ccccc2Cl)c2ccccc12 [1-(2-Chlorophenyl)-1H-indazole-3-amine] | 2.32
Nc1ccn(-c2cccnc2Cl)n1 [1-(2-Chloropyridin-3-yl)-1H-pyrazole-3-amine] | 0.62
CCOc1cccc(F)c1-n1ccc(N)n1 [1-(2-Ethoxy-6-fluorophenyl)-1H-pyrazole-3-amine] | 1.47
CCOc1c(F)cccc1-n1ccc(N)n1 [1-(2-ethoxy-3-fluorophenyl)-1H-pyrazole-3-amine] | 2.04
Nc1ccn(-c2nc(F)c(F)cc2F)n1 [1-(3,5,6-Trifluoropyridin-2-yl)-1H-pyrazole-3-amine] | 1.15
Cc1nc(-n2ccc(N)n2)c(F)cc1F [1-(3,5-Difluoro-6-methylpyridin-2-yl)-1H-pyrazole-3-amine] | 1.25
Nc1nn(-c2ncc(F)cc2F)c2ccc(F)cc12 [1-(3,5-Difluoropyridin-2-yl)-5-fluoro-1H-indazole-3-amine] | 2.09
CCOc1c(Cl)cccc1-n1ccc(N)n1 [1-(3-Chloro-2-ethoxyphenyl)-1H-pyrazole-3-amine] | 2.13

Compound | chromatographic logP
Nc1ccn(-c2cccc(Cl)c2F)n1 [1-(3-Chloro-2-fluorophenyl)-1H-pyrazole-3-amine] | 1.9
Nc1ccn(-c2ncc(F)cc2Cl)n1 [1-(3-Chloro-5-fluoropyridin-2-yl)-1H-pyrazole-3-amine] | 0.98
Nc1ccn(-c2nccc(I)c2F)n1 [1-(3-Fluoro-4-iodopyridin-2-yl)-1H-pyrazole-3-amine] | 1.38
Nc1ccn(-c2nccnc2F)n1 [1-(3-Fluoropyrazin-2-yl)-1H-pyrazole-3-amine] | 0.49
Nc1ccn(-c2ncnc(F)c2F)n1 [1-(5,6-Difluoropyrimidin-4-yl)-1H-pyrazole-3-amine] | 0.86
Nc1ccn(-c2ncc(Cl)cc2F)n1 [1-(5-Chloro-3-fluoropyridin-2-yl)-1H-pyrazole-3-amine] | 1.27
Nc1ccn(-c2cncc(F)n2)n1 [1-(6-Fluoropyrazin-2-yl)-1H-pyrazole-3-amine] | 0.9
Nc1cnn(-c2ncc(Cl)cc2Cl)n1 [2-(3,5-Dichloropyridin-2-yl)-2H-1,2,3-triazole-4-amine] | 1.38
Nc1cnn(-c2ncccc2F)n1 [2-(3-Fluoropyridin-2-yl)-2H-1,2,3-triazole-4-amine] | 0.4
Nc1cnn(-c2ncc(C(F)(F)F)cc2Cl)n1 [2-[3-Chloro-5-(trifluoromethyl)pyridin-2-yl]-2H-1,2,3-triazole-4-amine] | 1.74
Nc1cnn(-c2ccc(C(F)(F)F)cn2)n1 [2-[5-(Trifluoromethyl)pyridin-2-yl]-2H-1,2,3-triazole-4-amine] | 1.53
O=C(O)c1ccccc1C(=O)Nc1ccn(-c2c(F)cc([N+](=O)[O-])cc2F)n1 [2-{[1-(2,6-Difluoro-4-nitrophenyl)-1H-pyrazol-3-yl]carbamoyl}benzoic acid] | 1.85
N#Cc1cncnc1-n1ccc(N)n1 [4-(3-Amino-1H-pyrazol-1-yl)pyrimidine-5-carbonitrile] | 0.59
Nc1nn(-c2ccccc2Cl)cc1Br [4-Bromo-1-(2-chlorophenyl)-1H-pyrazole-3-amine] | 2.23
Nc1nn(-c2ccccc2Cl)cc1Cl [4-Chloro-1-(2-chlorophenyl)-1H-pyrazole-3-amine] | 2.14
Nc1nn(-c2ccccc2Cl)cc1I [4-Iodo-1-(2-chlorophenyl)-1H-pyrazole-3-amine] | 2.36
O=C(Nc1nn(-c2ccccc2Cl)cc1F)c1ccccc1Cl [Compound I-1-27, 2-Chloro-N-[1-(2-chlorophenyl)-4-fluoro-1H-pyrazol-3-yl]benzamide] | 2.7

same assay, conditions: reversed-phase column (C 18), acidic range (pH 3.4), 55° C.

Compound | chromatographic logP | log P
Nc1ccn(-c2c(F)cccc2F)n1 [1-(2,6-Difluorophenyl)-1H-pyrazole-3-amine] | 1.13 | 
Nc1ccn(-c2ncc(F)cc2F)n1 [1-(3,5-Difluoropyridin-2-yl)-1H-pyrazole-3-amine] | 0.81 | 
COc1ccccc1-n1ccc(NC(=O)c2ccccc2Br)n1 [Compound I-1-2] |  | 2.69
COc1ccccc1-n1ccc(NC(=O)c2cc(C)oc2C)n1 [Compound I-1-3] |  | 2.87
O=C(Nc1ccn(-c2ccccc2C(F)(F)F)n1)c1ccccc1Cl [Compound I-1-4] |  | 2.92
O=C(Nc1ccn(-c2ccccc2C(F)(F)F)n1)c1ccccc1C(F)(F)F [Compound I-1-6] |  | 2.75
O=C(Nc1ccn(-c2ccccc2C(F)(F)F)n1)c1ccnn1C(F)F [Compound I-1-7] |  | 3.05
N#Cc1ccccc1-n1ccc(NC(=O)c2ccccc2Cl)n1 [Compound I-1-8] |  | 2.38
N#Cc1ccccc1-n1ccc(NC(=O)c2ccccc2C(F)(F)F)n1 [Compound I-1-9] |  | 2.55
Cc1ccccc1C(=O)Nc1ccn(-c2ccccc2Cl)n1 [Compound I-1-11] |  | 2.86
CCc1ccccc1C(=O)Nc1ccn(-c2ccccc2Cl)n1 [Compound I-1-12] |  | 3.30
O=C(Nc1ccn(-c2ccccc2Cl)n1)c1ccccc1C(F)F [Compound I-1-13] |  | 3.03
O=C(Nc1ccn(-c2ccccc2Cl)n1)c1ccccc1C(F)(F)F [Compound I-1-14] |  | 2.96
O=C(Nc1ccn(-c2ccccc2Cl)n1)c1ccccc1F [Compound I-1-19] |  | 2.89
C#CCN(C(=O)c1ccccc1Cl)c1ccn(-c2ccccc2Cl)n1 [Compound I-1-23] |  | 3.25
O=C(c1ccccc1Cl)N(CC1CC1)c1ccn(-c2ccccc2Cl)n1 [Compound I-1-24] |  | 3.85
C=CCN(C(=O)c1ccccc1Cl)c1ccn(-c2ccccc2Cl)n1 [Compound I-1-26] |  | 3.56
O=C(Nc1nn(-c2ccccc2Cl)cc1Cl)c1ccccc1Cl [Compound I-1-28] |  | 2.88
O=C(Nc1nn(-c2ccccc2Cl)cc1I)c1ccccc1Cl [Compound I-1-30] |  | 3.01
Cc1cc(NC(=O)c2ccccc2Cl)nn1-c1ccccc1Cl [Compound I-1-31] |  | 2.45
O=C(Nc1ccn(-c2ccccc2Cl)n1)c1c(F)cccc1F [Compound I-1-36] |  | 2.65

Compound | chromatographic logP | log P
Cc1cccnc1C(=O)Nc1ccn(-c2ccccc2Cl)n1 [Compound I-1-38] |  | 3.24
O=C(Nc1ccn(-c2ccccc2Cl)n1)c1ncccc1Cl [Compound I-1-40] |  | 2.79
Cc1ncccc1C(=O)Nc1ccn(-c2ccccc2Cl)n1 [Compound I-1-41] |  | 1.44
O=C(Nc1ccn(-c2ccccc2Cl)n1)c1cccnc1C(F)(F)F [Compound I-1-42] |  | 2.48
O=C(Nc1ccn(-c2ccccc2Cl)n1)c1nccnc1C(F)(F)F [Compound I-1-44] |  | 2.74
Cc1cc(C(=O)Nc2ccn(-c3ccccc3Cl)n2)c(C)o1 [Compound I-1-45] |  | 3.05
Cc1ccsc1C(=O)Nc1ccn(-c2ccccc2Cl)n1 [Compound I-1-46] |  | 2.96
O=C(Nc1ccn(-c2ccccc2Cl)n1)c1ccsc1I [Compound I-1-47] |  | 3.05
Cn1nc(C(F)F)c(C(=O)Nc2ccn(-c3ccccc3Cl)n2)c1F [Compound I-1-49] |  | 2.59
O=C(Nc1ccn(-c2ccccc2Br)n1)c1ccccc1C(F)(F)F [Compound I-1-50] |  | 3.07
O=C(Nc1ccn(-c2ccccc2Br)n1)c1ccccc1Br [Compound I-1-52] |  | 2.86
O=C(Nc1ccn(-c2ccccc2Br)n1)c1ncccc1C(F)(F)F [Compound I-1-54] |  | 2.99
O=C(Nc1ccn(-c2ccccc2Br)n1)c1cccnc1C(F)(F)F [Compound I-1-56] |  | 2.54
O=C(Nc1ccn(-c2ccccc2Br)n1)c1cccnc1Cl [Compound I-1-57] |  | 2.37
Cn1nc(C(F)F)c(C(=O)Nc2ccn(-c3ccccc3Br)n2)c1F [Compound I-1-58] |  | 2.63
Cn1nc(C(F)(F)F)c(C(=O)Nc2ccn(-c3ccccc3Br)n2)c1F [Compound I-1-59] |  | 3.00
Cc1ccsc1C(=O)Nc1ccn(-c2ccccc2Br)n1 [Compound I-1-60] |  | 3.16
O=C(Nc1ccn(-c2cccc(F)c2F)n1)c1ccccc1C(F)(F)F [Compound I-1-62] |  | 3.07
O=C(Nc1ccn(-c2cccc(F)c2F)n1)c1ccccc1C(F)(F)F [Compound I-1-64] |  | 3.02
O=C(Nc1ccn(-c2cccc(F)c2F)n1)c1ccccc1C(F)(F)F [Compound I-1-65] |  | 3.13
